Test [1] concerns CML sCD34+ cells. The test can be described thus: Long-term culture initiating cell assay (LTC-IC). The test is classed as cell-based, human. To be noted: imatinib. The protocol: Sorted iPSC-derived lin^−CD34^+CD45^+ cells were plated in a six-well plate at 10^4 cells/well containing 5-7 day-old cultures of murine 1×10^5 M2-10B4 and OP9 stromal cells (1:1 ratio mix) in LTC-IC medium consisting of SFM supplemented with 10 μM hydrocortisone, 50 ng/ml SCF, 5 ng/ml IL3, and 50 ng/ml IL6. Cultures were maintained at 37° C. in a humidified atmosphere with 5% CO2, and fed at weekly intervals. After five weeks, cells were harvested and analyzed for CFC potential as described above. LTC-IC assay for somatic lin^−CD34^+CD45^+ cells was performed using M2-10B4 cells exactly as described in the Stem Cell Technologies protocol to be found online at stemcell.com/en/Technical-Resources/db5a9/28412_Itc_ic-H.aspx.

The test system of the next test is iCML CD34+ cells. To be noted: CFSE cultures, 5 μM imatinib, four days, annexin V.
For test [2], the system named is OLFM4. The experiment in a line: OLFM4 expression by QPCR in CML iCD34+ cells. To be noted: CML iCD34+ cells treated with imatinib. Type of test: cell-based, human. The method, then: iPSCs-derived lin^−CD34^+CD45^+ cells and somatic CML bone marrow lin^−CD34^+ were transfected with 100 nM of either siOLFM4 or scrambled (AllStars Neg. siRNA AF 488) using HiPerfect transfection reagent according to the manufacturer's protocol (all from Qiagen). The transfection efficiency was 50-60% as evaluated by using control ALLStars Neg. siRNA AF488. As determined by QPCR performed 24 hours after transfection, the silencing efficiency was 70-75% (FIG. 9D).
RNA was isolated from the cell subpopulations using PureLink RNA mini kit (Life Technologies). cDNA synthesis was carried out using Advantage RT-for-PCR kit (Clontech). Quantitative real-time PCR analysis was performed using Gand PlatinumSYBR Green qPCR SuperMix-UDG kit (Life Technologies) and self-designed specific primers for BCR-ABL (forward […] (SEQ ID NO:1); reverse […] (SEQ ID NO:2)), OLFM4 (forward […] (SEQ ID NO:3); reverse […] (SEQ ID NO:4)) and GAPDH (forward […] (SEQ ID NO:5); reverse […] (SEQ ID NO:6)).
The reactions were run on a Mastercyclerep Realplex™ thermal cycler (Eppendorf) and expression levels were calculated by minimal cycle threshold values (Ct) normalized to the reference expression of GAPDH in each sample (Pfaffl, 2001). When specified, K562 was used as a reference. All QPCR products were analyzed on 1.2% agarose gels to confirm the specificity of detection.

The subject of a further test is CML iCD34+ cells. The experiment in a line: Adhesion assay to fibronectin. The test is classed as cell-based, human. To be noted: 5 μM imatinib, 24 hours.
The test system of test [3] is CML sCD34+ cells. The test can be described thus: Hematopoietic colony-forming assay. The test is classed as cell-based, human. From the text:
CD43^+ hematopoietic cells were collected from differentiated iPSC cultures using MACS and labeled with CD235a/CD41a FITC, CD45 APC and CD38 PE (BD Pharmingen). Lin^−CD45^+CD38^+ and lin^−CD45^+CD38^− subpopulations were obtained by fluorescence-activated cell sorter (FACSAria) (Vodyanik et al., 2006). Bone marrow mononuclear cells from CML patients in the chronic phase were purchased commercially (AllCells or Applied StemCells), or obtained from the patients at the University of Wisconsin Hospital and Clinics (Madison, Wis.) with approval from the University of Wisconsin Institutional Review Board. Donors had previously signed an Institutional Review Board-approved consent. Bone marrow cells from healthy donors were obtained from Cincinnati Children's Hospital Medical Center (CCHMC). Mononuclear cells were labeled with the lineage-specific markers CD2, CD3, CD14, CD15, CD16, CD19, CD20, CD24, CD41a, CD56, CD66b, and Glycophorin A (FITC-conjugated antibodies), CD34 APC (BD Pharmingen) and DAPI to exclude dead cells. Live lin^−CD34^+ cells were isolated using FACSAria (BD).
Hematopoietic clonogenic assays were performed using serum-containing StemMACS semisolid clonogenic medium (Miltenyi Biotec, CA). Colonies were scored after fourteen to 21 days of incubation.

The test system of test [4] is lin-CD34+ cells from CML bone marrow. The test can be described thus: Xenograft of siRNA-treated CML lin-CD34+ cells. The test is classed as in vivo, Nod scid gamma (NSG) mice. Conditions: four mice, 16 weeks; two out of four control siRNA animals engrafted. The protocol:
Sorted lin^−CD34^+ cells from CML bone marrow were transduced with either AllStars Negative control or OLFM4 siRNA for 24 hours. Cells were then washed and transplanted into Nod scid gamma (NSG) mice at 5-10×10^3 cells. Four mice were injected with cells treated with control siRNA and four mice were injected with OLFM4 siRNA. The mice were then analyzed at 16 weeks using flow cytometry for live human CD45^+ cells in bone marrow, liver, spleen, and peripheral blood.
The cultured cells were labeled with human CD45, mouse CD45 and DAPI and sorted for live human CD45^+ mouse CD45^− cells. The sorted cells were then plated in methyl cellulose media for hematopoietic progenitor assay and RNA extracted for PCR.

The test system of another test is sCD34+ cells. The experiment in a line: Cell proliferation assay. The test is classed as cell-based, human. To be noted: serum-free cultures without cytokines, OLFM4 300 ng/ml. The method, then: Total lin^−CD34^+, lin^−CD34^+CD38^− or lin^−CD34^+CD38^+ were plated in triplicate in 96-well plate at 10^3 cells/well. […] When specified, the 300 ng/ml OLFM4 (Acro Biosystem) or the following growth factors were added: 10 ng/ml IL3, 100 ng/ml SCF, 100 ng/ml Flt3L, 100 ng/ml IL6 and 200 ng/ml GM-CSF. Viable cell yields were determined by counting trypan blue excluding viable cells using a hemocytometer.

Test [5] deals with OLFM4. The experiment in a line: OLFM4 expression by RT-PCR/QPCR in sCD34+ cells. Type of test: cell-based, human. To be noted: sCD34+ cells treated with G-CSF (10 ng/ml, 24 hours).

Method for iCML CD34+ cells: Differentiated cells were labeled with 1 μM carboxy-fluorescein diacetate succinimidyl diester (CFSE; Molecular Probes, Eugene, Oreg.) as previously described (Copland et al., 2006; Holtz et al., 2002). These cells were then incubated overnight in CSSM medium supplemented with growth factors to allow excess unbound dye to leak out of the cells. Cells cultured in the presence of 10 μg/ml mitomycin C (Sigma Aldrich) were used to establish the CFSEmax (undivided cell population). The next day, CFSE^bright cells were sorted by FACArias to exclude non-labeled and CFSE^dim populations. […] At the end of the culture period, cells were stained with CD34-APC and 7AAD for flow cytometry analysis. The percentage of cells in each generation was determined using FlowJo software (Tree Star, Ashland, Oreg.), with the position of the parent generation set on the basis of the fluorescence profile of undivided cells.

With `Cc1ccc(NC(=O)c2ccc(CN3CCN(C)CC3)cc2)cc1Nc1nccc(-c2cccnc2)n1` [imatinib, 4-[(4-methylpiperazin-1-yl)methyl]-N-(4-methyl-3-{[4-(pyridin-3-yl)pyrimidin-2-yl]amino}phenyl)benzamide], in the test with CML sCD34+ cells [1], the LTC-ICs result is “little effect”. In the test on iCML CD34+ cells, the “apoptosis in more mature iCD34dim and iCD34- cells” value is recorded as “substantial increase in apoptosis”; the “apoptosis in most primitive iCD34bright cells” value is given as “resistant to imatinib-induced apoptosis”. The “OLFM4 expression (QPCR)” value in the test on OLFM4 [2] was “augmentation of OLFM4 expression”. Further, the adhesion to fibronectin entry in the test with CML iCD34+ cells is reported as “partially restored”. Also, the “response of parental bone marrow cells to imatinib (myeloid CFC potential)” value in the test on CML sCD34+ cells [3] (parental lin-CD34+ BM cells of the CML patient, 5 μM imatinib, 24 hours pretreatment) was “sensitivity”.
Turning to “OLFM4: OLFM4 protein (Acro Biosystem) added to medium at 300 ng/ml; secreted glycoprotein”, the “animals showing engraftment (live human CD45+ cells)” value in test [4] is recorded as “none”. The entries for the “proliferation of sCD34+ cells” value in the test with sCD34+ cells and with sCD34+ cells (listed as OLFM4 protein) were “potentiates expansion” and “enhanced proliferation”, respectively. In addition, the “reversal of the knockdown effect on CFCs by OLFM4 pretreatment” value in the test on CML sCD34+ cells [3] (CML sCD34+ cells, OLFM4 protein 300 ng/ml) is given as “can be reversed”.

B1: G-CSF: cytokine used at 10 ng/ml to induce OLFM4 expression in sCD34+ cells (protein, UniProt P09919 31-207, looked up)
Granulocyte …: TPLGPASSLPQSFLLKCLEQVRKIQGDGAALQEKLVSECATYKLCHPEELVLLGHSLGIPWAPLSSCPSQALQLAGCLSQLHSGLFLYQGLLQALEGISPELGPTLDTLQLDVADFATTIWQQMEELGMAPALQPTQGAMPAFASAFQRRAGGVLVASHLQSFLEVSYRVLRHLAQP
Turning to B1, the OLFM4 expression result in the test with OLFM4 [5] is listed as “rapidly induced”.

The record behind these values is patent US9381210B2 (Wisconsin Alumni Research Foundation, priority 2013, dated 2016).
